Data from PubChem BioAssay (NCI).
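Briefly, cells in 96-well plates were exposed to five compound concentrations for 48 h, and endpoints were estimated by linear interpolation. Abbreviation: GI50, concentration required for 50% inhibition of growth. TGI is the concentration that stops growth completely.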

Assays:
Assay in all cases: NCI anticancer screen, dose series, 48 h
RPMI-8226 leukemia = system: RPMI-8226 leukemia
SF-295 CNS = system: SF-295 CNS
MDA-MB-231 breast = system: MDA-MB-231 breast
SK-MEL-2 melanoma = system: SK-MEL-2 melanoma
HT29 colon = system: HT29 colon
A549 NSCLC = system: A549 NSCLC
IGROV1 ovarian = system: IGROV1 ovarian
UO-31 renal = system: UO-31 renal
MCF7 breast = system: MCF7 breast
SN12C renal = system: SN12C renal
OVCAR-8 ovarian = system: OVCAR-8 ovarian
HCT-15 colon = system: HCT-15 colon
NCI-H23 lung = system: NCI-H23 lung
PC-3 prostate = system: PC-3 prostate
CCRF-CEM leukemia = system: CCRF-CEM leukemia
SK-OV-3 ovarian = system: SK-OV-3 ovarian
NCI-H226 lung = system: NCI-H226 lung
CAKI-1 renal = system: CAKI-1 renal
RXF 393 renal = system: RXF 393 renal
HOP-62 NSCLC = system: HOP-62 NSCLC
MDA-MB-468 breast = system: MDA-MB-468 breast
OVCAR-5 ovarian = system: OVCAR-5 ovarian
T-47D breast = system: T-47D breast
NCI-H522 lung = system: NCI-H522 lung
MOLT-4 leukemia = system: MOLT-4 leukemia
SNB-19 CNS = system: SNB-19 CNS
UACC-257 melanoma = system: UACC-257 melanoma

COc1ccc(C(=O)/C=C/c2cc3c(cc2Br)OCO3)cc1S(N)(=O)=O
GI50 (RPMI-8226 leukemia): 2.87 µM
TGI (RPMI-8226 leukemia): 10.6 µM
GI50 (SF-295 CNS): 6.21 µM
TGI (SF-295 CNS): 25.4 µM
GI50 (MDA-MB-231 breast): 2.87 µM
TGI (MDA-MB-231 breast): 8.68 µM
GI50 (SK-MEL-2 melanoma): 14.7 µM
TGI (SK-MEL-2 melanoma): 30.2 µM
GI50 (HT29 colon): 1.88 µM
TGI (HT29 colon): 3.66 µM
GI50 (A549 NSCLC): 2.7 µM
TGI (A549 NSCLC): 10.5 µM
GI50 (IGROV1 ovarian): 2.8 µM
TGI (IGROV1 ovarian): 12.7 µM
GI50 (UO-31 renal): 2.64 µM
TGI (UO-31 renal): 12.8 µM
GI50 (MCF7 breast): 3.84 µM
TGI (MCF7 breast): 19.5 µM
GI50 (SN12C renal): 2.05 µM
TGI (SN12C renal): 5.32 µM
GI50 (OVCAR-8 ovarian): 2.91 µM
TGI (OVCAR-8 ovarian): > 100 µM
GI50 (HCT-15 colon): 1.78 µM
TGI (HCT-15 colon): 3.79 µM
GI50 (NCI-H23 lung): 4.24 µM
TGI (NCI-H23 lung): 28 µM
GI50 (PC-3 prostate): 6.7 µM
TGI (PC-3 prostate): 28.9 µM
GI50 (CCRF-CEM leukemia): 6.67 µM
TGI (CCRF-CEM leukemia): 38.1 µM
GI50 (SK-OV-3 ovarian): 14.4 µM
TGI (SK-OV-3 ovarian): 34.1 µM
GI50 (NCI-H226 lung): 2.8 µM
TGI (NCI-H226 lung): 10.9 µM
GI50 (CAKI-1 renal): 4.55 µM
TGI (CAKI-1 renal): 23.9 µM
GI50 (RXF 393 renal): 2.77 µM
TGI (RXF 393 renal): 17.5 µM
GI50 (HOP-62 NSCLC): 2.62 µM
TGI (HOP-62 NSCLC): > 100 µM
GI50 (MDA-MB-468 breast): 4.98 µM
TGI (MDA-MB-468 breast): 24.8 µM
GI50 (OVCAR-5 ovarian): 2.65 µM
TGI (OVCAR-5 ovarian): 10.2 µM
GI50 (T-47D breast): 5.99 µM
TGI (T-47D breast): 33 µM
GI50 (NCI-H522 lung): 2.79 µM
TGI (NCI-H522 lung): 14.9 µM
GI50 (MOLT-4 leukemia): 2.3 µM
TGI (MOLT-4 leukemia): 7.68 µM
GI50 (SNB-19 CNS): 5.77 µM
TGI (SNB-19 CNS): 29.7 µM
GI50 (UACC-257 melanoma): 14.9 µM
TGI (UACC-257 melanoma): 42.7 µM
